The values that follow come from patent EP1038880B1, “Androstanes and pregnanes for allosteric modulation of GABA receptor” (priority 1994, dated 1995).

Values joined by “and” are separate entries in the source; they are usually repeats but may differ in a detail not shown here. Equal values may be shown once.

Assay [1] deals with N.I.H. Swiss-Webster mice. Nature of the assay: Elevated plus-maze. The format is in vivo. The note with it: for % Control: PO, 10 mg/kg, water; for response vs control in vivo at 10 mg/kg: Mus musculus, ip, read-out: % Control. The source says: The theoretical basis for the elevated plus-maze test is similar to that of the light/dark transition test. […] The apparatus consists of two open-arms and two enclosed-arms. The elevated plus-maze test allows for two measures of anxiety, the number of entries into the open-arms and the time spent on the open-arms, both expressed as a percentage of the total number of entries and time spent in/on both the open-arms and enclosed-arms.
Male N.LH. Swiss-Webster mice (Harlan, Indianapolis, IN) weighing 15-20 g were housed four per cage in polyethylene cages with sawdust bedding. The colony mom was environmentally controlled (22°C) with a 12^- hr light/dark cycle (0600-1800 hr). Food and water were available ad libitum, except during testing. The experiments were run from 0700-1500 hr and groups were counterbalance for time of day effects. Mice were only administered drug or vehicle once.
The apparatus included two open arms perpendicular to two enclosed arms elevated 50 cm from the floor. Each arm was 50 cm long and the walls of the enclosed arms were 40 cm tall. The maze was made completely of black plexiglass. Incandescent 200 W light bulbs were above each of the open arms to produce a strong contrast between the open arms and the enclosed arms.
Ten minutes after an injection, the N.I.H. Swiss-Webster mice were placed in the center of the plus-maze facing an open arm. During the 5 min test period, the number of entries onto the open arms and the enclosed arms, and the time spent in the open arms and enclosed arms were measured. All four paws had to be within an arm for the dependent variable to be measured. Therefore, the time spent in the center of the maze is not counted, so the total time spent in the open arms and the enclosed arms may not equal 5 min.

For assay [2], the system named is metrazol induced convulsions. Nature of the assay: animal or person. The format is in vivo, mice. The note with it: for % Protected: water; for responders at 10 mg/kg: Mus musculus, 10 min, 10 minutes prior to metrazol (85 mg/kg), read-out: % Protected. As to the method: Experiments were also performed to determine the physiological relevance of neuroactive steroid and GABA receptor interactions by assessing the ability of the compounds of and used in the invention to prevent metrazol induced convulsions in mice. Mice were injected with various doses of the test compounds of the invention, 10 minutes prior to the injection of metrazol. The time to onset of myoclomis (presence of forelimb clonic activity) induced by metrazol was determined by observing each mouse for a period of 30 minutes. […] Table 6: Antimetrazol Activity of Neuroactive Steroids in Mice
The anticonvulsant tests are similar to that described above. […] The number of animals with tonic and/or clonic convulsions was recorded. In the maximal electroshock test, 50 mA of current at 60 Hz was delivered through corneal electrodes for 200 msec to induce tonic seizure. The ability of compounds to abolish the tonic component was defined as the endpoint. General CNS depression potential was determined by a rotorod test 10 minutes after the injection of compounds where the number of mice staying on a rotating (6 rpm) rod for 1 minute in one of the three trials was determined. […] Table 7. Anticonvulsant Activity of Exemplified Neuroactive Steroids and those of Selected Clinically Useful Anticonvulsants in Mice

Assay [3] deals with GR complex. The assay is described as follows: [35S]TBPS binding assay (inhibition of [35S]TBPS binding, cerebral cortex P2 homogenate). Also on record: species or system rat. Conditions: for IC50: 2 nM [35S]TBPS, rat cerebral cortex P2 homogenate; for IMAX: maximum inhibition of [35S]TBPS binding. An outline of the steps:
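Rat (male Sprague-Dawley) cortical P2 homogenate (0.5 mg protein) in 50 mM Na/K phosphate pH 7.4, 200 mM NaCl, incubated with 2 nM [35S]TBPS plus steroid test compounds (DMSO) in presence of GABA plus (+)bicuculline, 25°C, 90 min. Filtration, scintillation counting; nonspecific binding defined with […].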

As to `CC(=O)c1ccc(C#CC2(O)CCC3(C)C(CCC4C3CCC3(C)C(C(=O)COC(=O)CCC(=O)[O-])CCC43)C2)cc1.[Na+]` (stereo not drawn) [3β-(4'-Acetylphenylethynyl)-3α,21-dihydroxy-5β-pregnan-20-one 21-hemisuccinate sodium salt], the “% Control” value in assay [1] was determined as 248%. In addition, the “% Protected” value in assay [2] (PO, 10 mg/kg) was determined as 75%.
As for `CC(=O)[C@H]1CC[C@H]2[C@@H]3CC[C@H]4C[C@H](OC(=O)c5ccccc5)CC[C@]4(C)[C@H]3CC[C@]12C` [Phenyl], the “% Protection” value in assay [2] (60 mg/kg, 1hr, IP) stood at 33%.
For `C[C@@]1(O)CC[C@@]2(C)[C@@H](CC[C@@H]3[C@@H]2CC[C@]2(C)[C@@H](C(=O)Cn4cncn4)CC[C@@H]32)C1` [3α-Hydroxy-3β-methyl-21-(1',2',4'-triazolyl)-5α-pregnan-20-one], in assay [1], the response vs control in vivo at 10 mg/kg came out at 153%. For the same molecule, in assay [3], the IC50 (commonly the concentration that inhibits the measured activity by half) turned out to be 125 nM and the IMAX came out at 105%. Further, in assay [2] (IP, 10 mg/kg), the responders at 10 mg/kg came to 87.5%.
For `CC(=O)CCCC#C[C@@]1(O)CC[C@@]2(C)[C@H](CC[C@@H]3[C@@H]2CC[C@]2(C)[C@@H](C(C)=O)CC[C@@H]32)C1` [3α-hydroxy-3β-[6'-oxo-1'-heptynyl]-5β-pregnan-20-one] the same measures were 130%, 90 nM, 101% and 62.5%.
For `CC(=O)[C@H]1CC[C@H]2[C@@H]3CC[C@@H]4C[C@@](O)(C#CCn5ccnn5)CC[C@]4(C)[C@H]3CC[C@]12C` [3α-Hydroxy-3β-[3-(1'H-1,2,3-triazol-1'-yl)-1-propynyl]-5β-pregnan-20-one] the same measures were 116%, 655 nM, 102% and 25%.
For `C[C@@]1(O)CC[C@@]2(C)[C@@H](CC[C@@H]3[C@@H]2CC[C@]2(C)[C@@H](C(=O)Cn4cccn4)CC[C@@H]32)C1` [3α-hydroxy-21-(1'-pyrazolyl)-3β-methyl-5α-pregnan-20-one] the same measures were 154%, 115 nM, 98% and 87.5%.
Take `CC(=O)[C@H]1CC[C@H]2[C@@H]3CC[C@@H]4C[C@@](O)(C#Cc5ccccn5)CC[C@]4(C)[C@H]3CC[C@]12C` [3α-Hydroxy-3β-(2-pyridyl)ethynyl-5β-pregnan-20-one]: the response vs control in vivo at 10 mg/kg in assay [1] was 123%. In assay [3], this molecule returned an IC50 of 108 nM and an IMAX of 98%. For the same molecule, in assay [2] (IP, 10 mg/kg), the responders at 10 mg/kg was determined as 37.5%.
Consider `CC(=O)c1ccc(C#C[C@@]2(O)CC[C@@]3(C)[C@H](CC[C@@H]4[C@@H]3CC[C@]3(C)[C@@H](C(C)=O)CC[C@@H]43)C2)s1` [3β-(5-Acetylthien-2-yl)ethynyl-3α-hydroxy-5β-pregnan-20-one], for which, in assay [1], the response vs control in vivo at 10 mg/kg came out at 83%. In addition, in assay [3], the IC50 is 52 nM and the IMAX amounted to 89%. Also, in assay [2] (IP, 10 mg/kg), the responders at 10 mg/kg stood at 25%.
The matching figures for `CC(=O)[C@H]1CC[C@H]2[C@@H]3CC[C@@H]4C[C@@](O)(C#Cc5ccc(-c6ccccc6)cc5)CC[C@]4(C)[C@H]3CC[C@]12C` [3β-(4'-biphenylethynyl)-3α-hydroxy-5β-pregnan-20-one]: 111%, 43 nM, 83% and 0%.
`CC(=O)C1CCC2C3CCC4CC(OC(=O)c5ccc(Cl)cc5)CCC4(C)C3CCC12C` (stereo not shown) [4-Chlorophenyl]: in assay [2] (60 mg/kg, 1hr, IP), the “% Protection” value is recorded as 50%.
Same read-out and setting: the value for `CC(=O)C1CCC2C3CCC4CC(OC(=O)C(C)C)CCC4(C)C3CCC12C` (stereo not shown) [Example 2-Propyl] was 75%.
The same measure, in the same setting: the value for `CCC(=O)OC1CCC2(C)C(CCC3C2CCC2(C)C(C(C)=O)CCC32)C1` (stereo not shown) [Ethyl] was 75%.
Consider `Cc1cc(C)n(CC(=O)[C@H]2CC[C@H]3[C@@H]4CC[C@@H]5C[C@H](O)CC[C@]5(C)[C@H]4CC[C@]23C)n1` [3α-hydroxy-21-(1H-3,5-dimethylpyrazolyl)-5β-pregnan-20-one], for which, in assay [1], the response vs control in vivo at 10 mg/kg is 128%. Further, in assay [3], the IC50 was 96 nM and the IMAX is reported as 77%. For the same molecule, the responders at 10 mg/kg in assay [2] (IP, 10 mg/kg) is 50%.
`CCCC(=O)OC1CCC2(C)C(CCC3C2CCC2(C)C(C(C)=O)CCC32)C1` (stereo not shown) [Propyl]: in assay [2] (60 mg/kg, 1hr, IP), the “% Protection” value came out at 75%.
In assay [3], `CC12CCC3C4CCC(O)(C(F)(F)F)CC4CCC3C1CCC2C(=O)CSS(=O)(=O)[O-].[Na+]` (stereo not drawn) [Sodium S-(3α-hydroxy-3β-trifluoromethyl-5β-19-norpregnan-20-on-21-yl) thiosulfate] showed an IC50 of 325 nM and an IMAX of 98%. The “% Protected” value in assay [2] (IP, 40 mg/kg) is 37.5%.
On to `COc1ccc(C(=O)OC2CCC3(C)C(CCC4C3CCC3(C)C(C(C)=O)CCC43)C2)cc1` (stereo not shown) [4-Methoxyphenyl], for which, in assay [2] (60 mg/kg, 1hr, IP), the “% Protection” value is recorded as 17%.
Turning to `CCCCC(=O)OC1CCC2(C)C(CCC3C2CCC2(C)C(C(C)=O)CCC32)C1` (stereo not shown) [Butyl], the “% Protection” value in assay [2] (mouse, in vivo) is 33%.
Take `CC(=O)[C@H]1CC[C@H]2[C@@H]3CC[C@@H]4C[C@@](O)(C#CCCCC#N)CC[C@]4(C)[C@H]3CC[C@]12C` [3β-(5-Cyano-1-pentynyl)-3α-hydroxy-5β-pregnan-20-one]: in assay [3], the IC50 is 158 nM and the IMAX came to 100%. In addition, the responders at 10 mg/kg in assay [2] (IP, 10 mg/kg) was determined as 25%.
As for `CC(=O)C1CCC2C3CCC4CC(OC(=O)c5cccnc5)CCC4(C)C3CCC12C` (stereo not shown) [Example 3-Pyridyl], the “% Protection” value in assay [2] (60 mg/kg, IP, 20hour) is reported as 50(20hour) %.
As for `CC(=O)C1CCC2C3CCC4CC(O)(C#CC(C)O)CCC4(C)C3CCC12C` (racemic) [3β-[3'(R/S)-hydroxy-1'-butynyl]-3α-hydroxy-5α-pregnan-20-one], in assay [3], the IC50 is 144 nM and 202 nM; the IMAX is 99% and 102%. Besides, the responders at 10 mg/kg in assay [2] (IP, 10 mg/kg) is 50%.
As for `CC(=O)c1ccc(C#C[C@@]2(O)CC[C@@]3(C)[C@@H](CC[C@@H]4[C@@H]3CC[C@]3(C)[C@@H](C(=O)COC(=O)CCC(=O)[O-])CC[C@@H]43)C2)cc1.[Na+]` [3β-(4'-Acetylphenylethynyl)-3α,21-dihidroxy-5α-pregnan-20-one 21-hemisuccinate sodium salt], the “% Control” value in assay [1] is listed as 166%. Besides, in assay [2] (PO, 10 mg/kg), the “% Protected” value is on record as 80%.
In assay [3], `CC(=O)[C@H]1CC[C@H]2[C@@H]3CC[C@@H]4C[C@@](O)(C#CCOc5ccncc5)CC[C@]4(C)[C@H]3CC[C@]12C` [3α-Hydroxy-3β-[3-(4'-pyridinyloxy)-1-propynyl]-5β-pregnan-20-one] displayed an IC50 of 465 nM and an IMAX of 94%. Also, the responders at 10 mg/kg in assay [2] (IP, 10 mg/kg) worked out at 12.5%.
`CC(=O)C1CCC2C3CCC4CC(O)(C#CCC(C)O)CCC4(C)C3CCC12C` (racemic) [3β-[4'(R/S) hydroxypentynyl]-3α-hydroxy-5β-pregnan-20-one]: in assay [3], the IC50 was 71 nM and 94 nM; the IMAX was 103% and 104%. Moreover, in assay [2] (IP, 10 mg/kg), the responders at 10 mg/kg was determined as 87.5%.
For `CC(=O)OC1CCC2(C)C(CCC3C2CCC2(C)C(C(C)=O)CCC32)C1` (stereo not shown) [Methyl], in assay [2] (60 mg/kg, 1hr, IP), the “% Protection” value worked out at 25%.
Regarding `CCCC(CCC)C(=O)OC1CCC2(C)C(CCC3C2CCC2(C)C(C(C)=O)CCC32)C1` (stereo not shown) [Example 4-Heptyl], the “% Protection” value in assay [2] (60 mg/kg, IP, 4 hour) is reported as 16 (4 hour) %.
In assay [3], `CC(=O)OCCCC#C[C@@]1(O)CC[C@@]2(C)[C@H](CC[C@@H]3[C@@H]2CC[C@]2(C)[C@@H](C(C)=O)CC[C@@H]32)C1` [3β-(5'-Acetoxy-1'-pentynyl)-3α-hydroxy-5β-pregnan-20-one] yielded an IC50 of 96 nM and an IMAX of 98%. Further, the responders at 10 mg/kg in assay [2] (IP, 10 mg/kg) amounted to 12.5%.
